Experiment [1] addresses T1, SARS-CoV-2 PLpro (nsp3 1564–1878) (Severe acute respiratory syndrome coronavirus 2, UniProt P0DTD1). Description: biochemical. The arrangement: FRET-quenched peptide (Pro3) cleavage by PLpro, 10 min pre-incubation, slope over 20 min, normalised to no-compound control. Conditions: read-out: % of control remaining.
Experiment [2] concerns the target T1, SARS-CoV-2 PLpro (nsp3 1564–1878). The experiment can be described thus: biochemical. The arrangement: FRET-quenched peptide (Pro3) cleavage by PLpro, 10 min pre-incubation, slope over 20 min, normalised to no-compound control. Particulars: read-out: % of control remaining. This is another data set of the same source.

SMILES strings stand for the structures. Structures can show the parent of a compound that is named as a salt. Where two headings read alike, the source gives them in different places.

This note sets out measurements from article PMC8286840, “Identifying SARS-CoV-2 antiviral compounds by screening for small molecule inhibitors of Nsp3 papain-like protease” (Biochemical Journal, 2021).

Take `O=c1cc(N2CCOCC2)oc2c(-c3ccccc3)cccc12` [LY 294002 hydrochloride - 2-(4-Morpholinyl)-8-phenyl-4H-1-benzopyran-4-one hydrochloride]: the remaining activity at 1.25 µM in experiment [1] (Well no.=2344, low concentration screen) stood at 97.3%. In addition, the remaining activity at 3.75 µM in experiment [2] (Well no.=2344, high concentration screen) turned out to be 98.8%.
For `O=c1cc(N2CCOCC2)oc2c(-c3ccccc3)cccc12` [LY 294002], the remaining activity at 1.25 µM in experiment [1] (Well no.=2465, low concentration screen) stood at 101%. Also, the remaining activity at 3.75 µM in experiment [2] (Well no.=2465, high concentration screen) is 102%.
Regarding `O=c1cc(N2CCNCC2)oc2c(-c3ccccc3)cccc12` [LY 303511], in experiment [1] (Well no.=2467, low concentration screen), the remaining activity at 1.25 µM worked out at 102%. Also, the remaining activity at 3.75 µM in experiment [2] (Well no.=2467, high concentration screen) was 106%.
With `CN(C)[C@@H]1CCc2[nH]c3ccc(NC(=O)c4ccc(F)cc4)cc3c2C1` [LY 344864], the remaining activity at 1.25 µM in experiment [1] (Well no.=7289, low concentration screen) was determined as 93.4%. In experiment [2] (Well no.=7289, high concentration screen), the remaining activity at 3.75 µM worked out at 91.2%.
For the compound `c1ccc(-c2[nH]ncc2-c2ccnc3ccccc23)nc1` [LY 364947 - 4-[3-(2-Pyridinyl)-1H-pyrazol-4-yl]-quinoline], in experiment [1] (Well no.=2622, low concentration screen), the remaining activity at 1.25 µM was 96.3%. For the same compound, the remaining activity at 3.75 µM in experiment [2] (Well no.=2622, high concentration screen) turned out to be 101%.
With `CC(O)C(C)OC(=O)[C@@H]1C[C@@H]2c3cccc4c3c(cn4C(C)C)C[C@H]2N(C)C1` (stereo partly drawn) [LY-53,857 maleate], in experiment [1] (Well no.=772, low concentration screen), the remaining activity at 1.25 µM was 99.8%. In experiment [2] (Well no.=772, high concentration screen), the remaining activity at 3.75 µM is 97.2%.
`CCCc1c(OCCCCc2nnn[nH]2)ccc(C(C)=O)c1O` [LY-171,883]: in experiment [1] (Well no.=835, low concentration screen), the remaining activity at 1.25 µM amounted to 104%. Besides, in experiment [2] (Well no.=835, high concentration screen), the remaining activity at 3.75 µM was determined as 106%.
For the compound `CN1C2CCC1CC(NC(=O)c1nn(C)c3ccccc13)C2` (stereo not drawn) [LY-278,584 maleate], in experiment [1], the remaining activity at 1.25 µM amounted to 98.8%. Further, the remaining activity at 3.75 µM in experiment [2] is 101%.
Turning to `O=c1cc(N2CCOCC2)oc2c(-c3ccccc3)cccc12` [LY-294,002 hydrochloride], the remaining activity at 1.25 µM in experiment [1] (Well no.=1077, low concentration screen) was determined as 93.7%. Moreover, the remaining activity at 3.75 µM in experiment [2] (Well no.=1077, high concentration screen) is 90.8%.
Consider `O=S1(=O)N(CCN2CC=C(c3c[nH]c4cc(F)ccc34)CC2)c2cccc3c2N1CCC3` [LY-367,265], for which, in experiment [1] (Well no.=785, low concentration screen), the remaining activity at 1.25 µM came out at 100%. In experiment [2] (Well no.=785, high concentration screen), the remaining activity at 3.75 µM was found to be 103%.
For `CCCc1c(OCCCCc2nnn[nH]2)ccc(C(C)=O)c1O` [LY-171883], the remaining activity at 1.25 µM in experiment [1] (Well no.=4522, low concentration screen) was 98%. Also, in experiment [2] (Well no.=4522, high concentration screen), the remaining activity at 3.75 µM came out at 102%.
Consider `CC(CCc1ccccc1)NCC(O)c1ccc(O)c(C(N)=O)c1` (stereo not drawn) [Labetalol (hydrochloride)], for which the remaining activity at 1.25 µM in experiment [1] (Well no.=8287, low concentration screen) is 99.3%. The remaining activity at 3.75 µM in experiment [2] (Well no.=8287, high concentration screen) is 94.7%.
As for `CC(CCc1ccccc1)NCC(O)c1ccc(O)c(C(N)=O)c1` (stereo not drawn) [Labetalol hydrochloride], the remaining activity at 1.25 µM in experiment [1] (Well no.=975, low concentration screen) came to 102%. The remaining activity at 3.75 µM in experiment [2] (Well no.=975, high concentration screen) came to 101%.
On to `CCOC(=O)C1=C(C)NC(C)=C(C(=O)OCC)C1c1ccccc1/C=C/C(=O)OC(C)(C)C` [Lacidipine], for which the remaining activity at 1.25 µM in experiment [1] (Well no.=1798, low concentration screen) was 99.9%. Moreover, the remaining activity at 3.75 µM in experiment [2] (Well no.=1798, high concentration screen) is 100%.
As to `O=C(C[S+]([O-])Cc1ccco1)NC/C=C\COc1cc(CN2CCCCC2)ccn1` (stereo not drawn) [Lafutidine], the remaining activity at 1.25 µM turned out to be 93.3% in experiment [1] (Well no.=4722, low concentration screen) and 90.1% in experiment [1] (Well no.=7581, low concentration screen). Also, the remaining activity at 3.75 µM was determined as 95% in experiment [2] (Well no.=4722, high concentration screen) and 90.4% in experiment [2] (Well no.=7581, high concentration screen).
Turning to `C[C@@H]1CC[C@H]2[C@](C)(CO)[C@@H](O)CC[C@]2(C)[C@@]12CC[C@@](CO)(CCO)O2` [Lagochiline], the remaining activity at 1.25 µM in experiment [1] (Well no.=3651, low concentration screen) came out at 100%. In addition, the remaining activity at 3.75 µM in experiment [2] (Well no.=3651, high concentration screen) came out at 101%.
For the compound `Nc1ccn([C@@H]2CS[C@H](CO)O2)c(=O)n1` [Lamivudine], the remaining activity at 1.25 µM in experiment [1] (Well no.=8142, low concentration screen) worked out at 100%. In experiment [2] (Well no.=8142, high concentration screen), the remaining activity at 3.75 µM was 98.2%.
For the compound `Nc1nnc(-c2cccc(Cl)c2Cl)c(N)n1` [Lamotrigine], the remaining activity at 1.25 µM turned out to be 99.1% in experiment [1] (Well no.=977, low concentration screen) and 95.1% in experiment [1] (Well no.=1832, low concentration screen). Besides, the remaining activity at 3.75 µM came to 101% in experiment [2] (Well no.=977, high concentration screen) and 92.9% in experiment [2] (Well no.=1832, high concentration screen).
In the case of `Cc1c(OCC(F)(F)F)ccnc1C[S+]([O-])c1nc2ccccc2[nH]1` (stereo not drawn) [Lansoprazole], the remaining activity at 1.25 µM in experiment [1] (Well no.=1075, low concentration screen) came to 98.5%. Besides, in experiment [2] (Well no.=1075, high concentration screen), the remaining activity at 3.75 µM was 98.7%.
With `CS(=O)(=O)CCNCc1ccc(-c2ccc3ncnc(Nc4ccc(OCc5cccc(F)c5)c(Cl)c4)c3c2)o1` [Lapatinib ditosylate], the remaining activity at 1.25 µM in experiment [1] (Well no.=1714, low concentration screen) was found to be 105%. Further, the remaining activity at 3.75 µM in experiment [2] (Well no.=1714, high concentration screen) was 105%.
Regarding `CS(=O)(=O)CCNCc1ccc(-c2ccc3ncnc(Nc4ccc(OCc5cccc(F)c5)c(Cl)c4)c3c2)o1` [Lapatinib], the remaining activity at 1.25 µM in experiment [1] (Well no.=2983, low concentration screen) came out at 94.8%. Besides, the remaining activity at 3.75 µM in experiment [2] (Well no.=2983, high concentration screen) amounted to 92.8%.
Turning to `C/C=C(/C)C(=O)O[C@H]1CC(C)=CC(=O)[C@@]2(C)CC[C@@](O)(C(C)C)[C@H]12` [Lapidin], in experiment [1] (Well no.=3159, low concentration screen), the remaining activity at 1.25 µM was 105%. In addition, the remaining activity at 3.75 µM in experiment [2] (Well no.=3159, high concentration screen) came to 105%.
Turning to `CCN1C[C@]2(OC(=O)c3ccccc3NC(C)=O)CC[C@H](OC)[C@@]34[C@@H]2C[C@@H]([C@@H]13)[C@@]1(O)C[C@H](OC)[C@H]2C[C@@H]4[C@]1(O)[C@H]2OC` [Lappaconitine], the remaining activity at 1.25 µM in experiment [1] (Well no.=3653, low concentration screen) is 103%. For the same compound, in experiment [2] (Well no.=3653, high concentration screen), the remaining activity at 3.75 µM is 105%.
`CCN(C(=O)c1c(O)c2c(Cl)cccc2n(C)c1=O)c1ccccc1` [Laquinimod (ABR-215062)]: the remaining activity at 1.25 µM in experiment [1] (Well no.=4745, low concentration screen) came to 105%. The remaining activity at 3.75 µM in experiment [2] (Well no.=4745, high concentration screen) was 107%.
For `CC[C@@H](C(=O)[C@@H](C)[C@@H](O)[C@H](C)CCc1ccc(C)c(O)c1C(=O)O)[C@H]1O[C@](CC)([C@H]2CC[C@](O)(CC)[C@H](C)O2)C[C@@H]1C` [Lasalocid A], in experiment [1] (Well no.=3737, low concentration screen), the remaining activity at 1.25 µM was 95%. Also, the remaining activity at 3.75 µM in experiment [2] (Well no.=3737, high concentration screen) stood at 95.2%.
With `CN1CCC(C(=O)c2cccc(NC(=O)c3c(F)cc(F)cc3F)n2)CC1` [Lasmiditan (hydrochloride)], the remaining activity at 1.25 µM in experiment [1] (Well no.=8055, low concentration screen) was 97%. Besides, in experiment [2] (Well no.=8055, high concentration screen), the remaining activity at 3.75 µM came out at 98.4%.
`CC(C)OC(=O)CCC/C=C\C[C@@H]1[C@@H](CC[C@@H](O)CCc2ccccc2)[C@H](O)C[C@@H]1O` [Latanoprost]: the remaining activity at 1.25 µM in experiment [1] (Well no.=1769, low concentration screen) was determined as 97.5%; in experiment [1] (Well no.=6843, low concentration screen), 100%. Further, the remaining activity at 3.75 µM in experiment [2] (Well no.=1769, high concentration screen) came to 95.3%; in experiment [2] (Well no.=6843, high concentration screen), 98.9%.
Consider `COc1ccc(C[C@H]2c3cc(OC)c(OC)cc3CC[N+]2(C)C)cc1OC` [Laudanosine methiodide], for which the remaining activity at 1.25 µM in experiment [1] (Well no.=3589, low concentration screen) stood at 103%. Further, the remaining activity at 3.75 µM in experiment [2] (Well no.=3589, high concentration screen) came out at 106%.
With `CCCCCCCCCCCC(=O)O` [Lauric acid], the remaining activity at 1.25 µM in experiment [1] (Well no.=7169, low concentration screen) is 96.8%. Further, in experiment [2] (Well no.=7169, high concentration screen), the remaining activity at 3.75 µM was determined as 98.4%.
Turning to `O=C(O)c1cc(N(Cc2ccccc2O)Cc2cc(O)ccc2O)ccc1O` [Lavendustin A], the remaining activity at 1.25 µM in experiment [1] (Well no.=3837, low concentration screen) is 90.9%. For the same compound, in experiment [2] (Well no.=3837, high concentration screen), the remaining activity at 3.75 µM turned out to be 94.6%.
